How the values were obtained:
5-lipoxygenase = molecular target: T1, 5-lipoxygenase (Homo sapiens, UniProt P09917); assay: spectrophotometric enzyme assay at […] nm, linoleic acid substrate, human recombinant enzyme; type: biochemical; conditions: read-out: Anti-inflammatory assay 5-LOX, IC50
T1 construct: gene ALOX5
T1 sequence (P09917 1-674): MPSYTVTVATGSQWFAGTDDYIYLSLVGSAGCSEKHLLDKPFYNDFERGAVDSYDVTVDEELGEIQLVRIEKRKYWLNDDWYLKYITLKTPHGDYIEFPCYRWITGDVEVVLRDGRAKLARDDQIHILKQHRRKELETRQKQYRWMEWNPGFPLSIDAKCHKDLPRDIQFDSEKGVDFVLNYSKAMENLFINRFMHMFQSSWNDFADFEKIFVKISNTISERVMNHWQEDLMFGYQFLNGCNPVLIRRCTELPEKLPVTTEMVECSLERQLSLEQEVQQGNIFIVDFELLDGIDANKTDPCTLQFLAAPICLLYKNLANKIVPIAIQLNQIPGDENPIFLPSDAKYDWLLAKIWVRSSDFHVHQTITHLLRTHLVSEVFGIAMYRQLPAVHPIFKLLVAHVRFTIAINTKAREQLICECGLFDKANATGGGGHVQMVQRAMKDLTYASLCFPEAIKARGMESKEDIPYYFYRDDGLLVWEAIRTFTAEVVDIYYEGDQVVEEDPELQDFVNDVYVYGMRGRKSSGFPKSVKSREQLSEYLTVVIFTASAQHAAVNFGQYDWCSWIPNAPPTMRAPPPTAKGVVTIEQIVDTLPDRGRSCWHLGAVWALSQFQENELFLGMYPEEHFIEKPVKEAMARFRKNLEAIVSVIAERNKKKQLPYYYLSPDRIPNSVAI

acetylcholinesterase = molecular target: T2, acetylcholinesterase (Electrophorus electricus, UniProt O42275); assay: Ellman spectrophotometric assay at […] nm, electric eel enzyme; type: biochemical; conditions: read-out: Antiacetylcholinesterase assay, IC50
T2 construct: gene ache; Type-VI-S, EC 3.1.1.7
T2 sequence (O42275 24-633): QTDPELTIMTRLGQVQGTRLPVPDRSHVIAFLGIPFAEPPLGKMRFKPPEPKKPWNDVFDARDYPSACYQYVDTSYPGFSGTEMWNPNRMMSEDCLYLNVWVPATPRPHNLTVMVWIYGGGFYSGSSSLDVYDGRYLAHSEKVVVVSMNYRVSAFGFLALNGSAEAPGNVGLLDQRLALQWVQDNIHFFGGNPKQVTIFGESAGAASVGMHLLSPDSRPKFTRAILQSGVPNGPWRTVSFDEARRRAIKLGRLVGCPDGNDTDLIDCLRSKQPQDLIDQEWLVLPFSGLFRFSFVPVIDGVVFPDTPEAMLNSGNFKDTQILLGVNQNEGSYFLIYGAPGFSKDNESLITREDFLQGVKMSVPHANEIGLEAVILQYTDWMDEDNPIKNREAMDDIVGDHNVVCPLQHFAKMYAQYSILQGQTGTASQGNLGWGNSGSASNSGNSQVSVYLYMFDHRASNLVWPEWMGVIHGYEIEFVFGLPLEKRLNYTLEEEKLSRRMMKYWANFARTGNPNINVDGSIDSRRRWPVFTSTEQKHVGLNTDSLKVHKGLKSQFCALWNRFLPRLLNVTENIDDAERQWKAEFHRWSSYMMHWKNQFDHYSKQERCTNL

COc1cc2ccc(=O)oc2cc1O [SC, 7-hydroxy-6 methoxycoumarin]
IC50 (5-lipoxygenase): 1.76 ± 0.01 µM
IC50 (acetylcholinesterase): 270 ± 0.02 µM
